Test results taken from patent publication US11530385B2, “Hormone responsive tissue culture system and uses thereof” (Whitehead Institute for Biomedical Research, priority 2007, dated 2022).

Tests used:
BPEC cells = test: in vitro growth inhibition by estrogen antagonist, BPEC cells; assay type: cell-based, human; conditions: data not shown
Description: (§1) Expression of CK18 and BER-Ep4 both confirm the adenocarcinoma features and exclude a squamous tumor. E-cadherin excludes a mesenchymal tumor. BPLER xenografts express progesterone receptor, which is consistent with the notion that BPLER xenografts are hormone-responsive. This was confirmed by experiments in which estrogen-progesterone treatment of mice increased subject tumor size approximately two-fold compared to untreated mice. […] Similar tumor xenografts from cells cultured in the MEGM media was negative for progesterone receptor expression and the in vitro growth inhibition of the cells with ICI 182,780 was less than 20% (data not shown).

[1] = tested on: cells cultured in the MEGM media; test: in vitro growth inhibition by estrogen antagonist, cells cultured in the MEGM media; assay type: cell-based, human; conditions: data not shown
Description: as §1

BPE cells = test: in vitro growth inhibition by estrogen antagonist, BPE cells; assay type: cell-based, human; conditions: data not shown
Description: as §1

BPLE cells = test: in vitro growth inhibition by estrogen antagonist, BPLE cells; assay type: cell-based, human; conditions: data not shown
Description: as §1

BPLER xenograft tumors = test: hormone responsiveness of BPLER xenograft tumors in mice; assay type: in vivo; conditions: estrogen treated animals
Description: In one respect, the histology of tumors arising from BPLER is very similar, if not identical to human ductal breast carcinoma. There is prominent luminal marker CK18 expression in BPLER cells and tumors. There is also prominent expression of E-cadherin, a marker indicating polarization of cells. Morphology wise, BPLER xenografts form glandular structures similar to those seen in human tumors. BPLER xenografts into mammary fat pads are invasive into adjacent skeletal muscle, and cause a desmoplastic reaction. BPLER xenografts also express progesterone receptors based on immunohistological staining of xenograft tumor samples. In addition, BPLER tumor sizes respond to estrogen treatment, in that xenograft tumors weighed about 70-100% more in estrogen treated animals than in control animals. BPLER tumors spread within the breast tissue of mice, and the multifocal growth is consistent with lymphovascular invasion and spread of tumors. […]
Analysis of tumorigenicity and metastasis: Single-cell suspensions were prepared in a WIT:Matrigel (1:1) mixture and injected in 25 μL (orthotopic) and 100 μl (subcutaneous) volumes. […] Metastasis to lungs and other tissues was analyzed initially under a dissecting microscope (Leica) in fresh tissues, followed by microscopic examination of hematoxylin-eosin and immunostained sections of formalin-fixed and paraffin-embedded tissues. […]

| Compound | growth inhibition (BPEC cells) [%] | in vitro growth inhibition [1] | growth inhibition (BPE cells) [%] | growth inhibition (BPLE cells) [%] | xenograft tumor weight increase in treated animals vs control animals (BPLER xenograft tumors) |
| --- | --- | --- | --- | --- | --- |
| C[C@]12CC[C@@H]3c4ccc(O)cc4C[C@@H](CCCCCCCCC[S+]([O-])CCCC(F)(F)C(F)(F)F)[C@H]3[C@@H]1CC[C@@H]2O (some centres unmarked) [ICI 182,780] | > 80 | less than 20% | > 80 | > 80 | – |
| estrogen | – | – | – | – | 70-100% |
